Results published in ChEMBL document CHEMBL4699440, “Comprehensive review on the anti-bacterial activity of 1,2,3-triazole hybrids” (Eur J Med Chem, 2019).
Values after ≈ are worked out from the molar mass of the structure shown.

Tests used:
[1] = test system: Bacillus cereus; assay: Antibacterial activity against Bacillus cereus; assay type: functional
[2] = test system: KB; assay: Cytotoxicity against human KB cells; assay type: cell-based; conditions: Homo sapiens, KB
[3] = test system: Staphylococcus aureus; assay: Antibacterial activity against Staphylococcus aureus; assay type: functional
[4] = test system: Pseudomonas aeruginosa; assay: Antibacterial activity against Pseudomonas aeruginosa assessed as inhibition zone at 1 mg/ml measured after overnight incubation by disc diffusion method; assay type: functional; conditions: read-out: IZ
[5] = test system: Staphylococcus aureus; assay: Antibacterial activity against Staphylococcus aureus assessed as inhibition zone at 1 mg/ml measured after overnight incubation by disc diffusion method; assay type: functional; conditions: read-out: IZ
[6] = test system: Bacillus subtilis; assay: Antibacterial activity against Bacillus subtilis assessed as inhibition zone at 1 mg/ml measured after overnight incubation by disc diffusion method; assay type: functional; conditions: read-out: IZ
[7] = test system: Escherichia coli; assay: Antibacterial activity against Escherichia coli assessed as inhibition zone at 1 mg/ml measured after overnight incubation by disc diffusion method; assay type: functional; conditions: read-out: IZ
[8] = test system: Bacillus subtilis; assay: Antibacterial activity against Bacillus subtilis ATCC 6051 incubated for 24 hrs by broth microdilution method; assay type: functional
[9] = test system: Staphylococcus aureus; assay: Antibacterial activity against Staphylococcus aureus ATCC 12598 incubated for 24 hrs by broth microdilution method; assay type: functional
[10] = test system: Escherichia coli; assay: Antibacterial activity against Escherichia coli ATCC 25922 incubated for 24 hrs by broth microdilution method; assay type: functional
[11] = test system: Candida albicans; assay: Antifungal activity against Candida albicans ATCC 2091 incubated for 24 hrs by broth microdilution method; assay type: functional
[12] = test system: Pseudomonas aeruginosa; assay: Antibacterial activity against Pseudomonas aeruginosa ATCC 25619 incubated for 24 hrs by broth microdilution method; assay type: functional
[13] = test system: Aspergillus niger; assay: Antibacterial activity against Aspergillus niger ATCC 9029 incubated for 24 hrs by broth microdilution method; assay type: functional

SMILES	zone of inhibition at 1000 µg/mL [4]	zone of inhibition at 1000 µg/mL [5]	zone of inhibition at 1000 µg/mL [6]	zone of inhibition at 1000 µg/mL [7]	MIC [8]	MIC [9]	MIC [10]	MIC [11]	MIC [12]	MIC [13]	also measured
CC(C)C[C@H](NC(=O)CNC(=O)C(C)(C)NC(=O)[C@@H](NC(=O)C(C)(C)NC(=O)[C@H](CCC(N)=O)NC(=O)[C@H](C)NC(=O)C(C)(C)NC(=O)[C@H](C)NC(=O)C(C)(C)NC(=O)[C@@H]1CCN(C(=O)C(C)(C)n2cc(-c3ccc(C(F)(F)F)cc3)nn2)C1)C(C)C)C(=O)NC(C)(C)C(=O)N1CCC[C@@H]1C(=O)N[C@H](C(=O)NC(C)(C)C(=O)NC(C)(C)C(=O)N[C@@H](CCC(N)=O)C(=O)N[C@@H](CCC(N)=O)C(=O)N[C@H](CO)Cc1ccccc1)C(C)C	–	–	–	–	–	–	–	–	–	–	MIC [1]: 12.5 µg/mL (≈ 5.9 µM); IC50 [2]: 2.9 µg/mL (≈ 1.37 µM); MIC [3]: 12.5 µg/mL (≈ 5.9 µM)
COc1ccccc1-n1cc(CNc2ccccc2-c2nnc(-c3ccccc3)o2)nn1	2.5 mm	2.5 mm	2.5 mm	2.5 mm	–	–	–	–	–	–	–
CC(C)C[C@H](NC(=O)CNC(=O)C(C)(C)NC(=O)[C@@H](NC(=O)C(C)(C)NC(=O)[C@H](CCC(N)=O)NC(=O)[C@H](C)NC(=O)C(C)(C)NC(=O)[C@H](C)NC(=O)C(C)(C)NC(=O)[C@@H]1CCN(C(=O)C(C)(C)n2cc(-c3ccccc3C(F)(F)F)nn2)C1)C(C)C)C(=O)NC(C)(C)C(=O)N1CCC[C@@H]1C(=O)N[C@H](C(=O)NC(C)(C)C(=O)NC(C)(C)C(=O)N[C@@H](CCC(N)=O)C(=O)N[C@@H](CCC(N)=O)C(=O)N[C@H](CO)Cc1ccccc1)C(C)C	–	–	–	–	–	–	–	–	–	–	MIC [1]: 1.56 µg/mL (≈ 0.737 µM); IC50 [2]: 2.9 µg/mL (≈ 1.37 µM); MIC [3]: 1.56 µg/mL (≈ 0.737 µM)
CC1COc2c(N3CCN(C)CC3)c(F)cc3c(=O)c(C(=O)O)cn1c23 (stereo not given) [OFLOXACIN]	2.5 mm	2.5 mm	2.5 mm	2.5 mm	–	–	–	–	–	–	–
COc1ccc2oc(=O)cc(Cn3nnc(N)c3C#N)c2c1	–	–	–	–	25 µg/mL (≈ 84.1 µM)	0.2 µg/mL (≈ 0.673 µM)	0.2 µg/mL (≈ 0.673 µM)	0.2 µg/mL (≈ 0.673 µM)	25 µg/mL (≈ 84.1 µM)	0.2 µg/mL (≈ 0.673 µM)	–
Clc1cccc(-n2cc(CNc3ccccc3-c3nnc(-c4ccccc4)o3)nn2)c1	2.5 mm	2.5 mm	2.5 mm	2.5 mm	–	–	–	–	–	–	–
N#Cc1c(N)nnn1Cc1cc(=O)oc2c3c(ccc12)OCO3	–	–	–	–	25 µg/mL (≈ 80.3 µM)	0.2 µg/mL (≈ 0.643 µM)	0.2 µg/mL (≈ 0.643 µM)	0.2 µg/mL (≈ 0.643 µM)	25 µg/mL (≈ 80.3 µM)	0.2 µg/mL (≈ 0.643 µM)	–
CC(C)C[C@H](NC(=O)CNC(=O)C(C)(C)NC(=O)[C@@H](NC(=O)C(C)(C)NC(=O)[C@H](CCC(N)=O)NC(=O)[C@H](C)NC(=O)C(C)(C)NC(=O)[C@H](C)NC(=O)C(C)(C)NC(=O)[C@@H]1CCN(C(=O)C(C)(C)n2cc(-c3cccc(C(F)(F)F)c3)nn2)C1)C(C)C)C(=O)NC(C)(C)C(=O)N1CCC[C@@H]1C(=O)N[C@H](C(=O)NC(C)(C)C(=O)NC(C)(C)C(=O)N[C@@H](CCC(N)=O)C(=O)N[C@@H](CCC(N)=O)C(=O)N[C@H](CO)Cc1ccccc1)C(C)C	–	–	–	–	–	–	–	–	–	–	MIC [1]: 1.56 µg/mL (≈ 0.737 µM); IC50 [2]: 2.9 µg/mL (≈ 1.37 µM); MIC [3]: 1.56 µg/mL (≈ 0.737 µM)
CC(C)C[C@H](NC(=O)CNC(=O)C(C)(C)NC(=O)[C@@H](NC(=O)C(C)(C)NC(=O)[C@H](CCC(N)=O)NC(=O)[C@H](C)NC(=O)C(C)(C)NC(=O)[C@H](C)NC(=O)C(C)(C)NC(=O)[C@@H]1CCN(C(=O)C(C)(C)n2cc(-c3cc4ccccc4c4ccccc34)nn2)C1)C(C)C)C(=O)NC(C)(C)C(=O)N1CCC[C@@H]1C(=O)N[C@H](C(=O)NC(C)(C)C(=O)NC(C)(C)C(=O)N[C@@H](CCC(N)=O)C(=O)N[C@@H](CCC(N)=O)C(=O)N[C@H](CO)Cc1ccccc1)C(C)C	–	–	–	–	–	–	–	–	–	–	MIC [1]: 1.56 µg/mL (≈ 0.726 µM); IC50 [2]: 2.9 µg/mL (≈ 1.35 µM); MIC [3]: 1.56 µg/mL (≈ 0.726 µM)
CC(=O)C(C)(C)C(=O)N1CC[C@@H](C(=O)NC(C)(C)C(=O)N[C@@H](C)C(=O)NC(C)(C)C(=O)N[C@@H](C)C(=O)N[C@@H](CCC(N)=O)C(=O)NC(C)(C)C(=O)N[C@H](C(=O)NC(C)(C)C(=O)NCC(=O)N[C@@H](CC(C)C)C(=O)NC(C)(C)C(=O)N2CCC[C@@H]2C(=O)N[C@H](C(=O)NC(C)(C)C(=O)NC(C)(C)C(=O)N[C@@H](CCC(N)=O)C(=O)N[C@@H](CCC(N)=O)C(=O)N[C@H](CO)Cc2ccccc2)C(C)C)C(C)C)C1	–	–	–	–	–	–	–	–	–	–	MIC [1]: 1.56 µg/mL (≈ 0.801 µM); IC50 [2]: 1.56 µg/mL (≈ 0.801 µM); MIC [3]: 1.56 µg/mL (≈ 0.801 µM)
O=[N+]([O-])c1cccc(-n2cc(CNc3ccccc3-c3nnc(-c4ccccc4)o3)nn2)c1	2.5 mm	2.5 mm	2.5 mm	2.5 mm	–	–	–	–	–	–	–
c1ccc(Cn2cc(CNc3ccccc3-c3nnc(-c4ccccc4)o3)nn2)cc1	2.5 mm	2.5 mm	2.5 mm	2.5 mm	–	–	–	–	–	–	–
Cc1nnn(Cc2cc(=O)oc3c4c(ccc23)OCO4)c1C(=O)O	–	–	–	–	25 µg/mL (≈ 75.9 µM)	0.2 µg/mL (≈ 0.607 µM)	0.2 µg/mL (≈ 0.607 µM)	0.2 µg/mL (≈ 0.607 µM)	25 µg/mL (≈ 75.9 µM)	0.2 µg/mL (≈ 0.607 µM)	–
Clc1ccc(-n2cc(CNc3ccccc3-c3nnc(-c4ccccc4)o3)nn2)cc1	2.5 mm	2.5 mm	2.5 mm	2.5 mm	–	–	–	–	–	–	–
Cc1ccc2c(Cn3nnc(N)c3C#N)cc(=O)oc2c1	–	–	–	–	25 µg/mL (≈ 88.9 µM)	0.2 µg/mL (≈ 0.711 µM)	0.2 µg/mL (≈ 0.711 µM)	0.2 µg/mL (≈ 0.711 µM)	25 µg/mL (≈ 88.9 µM)	0.2 µg/mL (≈ 0.711 µM)	–
CCOC(=O)c1c(C)nnn1Cc1cc(=O)oc2c3c(ccc12)OCO3	–	–	–	–	25 µg/mL (≈ 70 µM)	0.2 µg/mL (≈ 0.56 µM)	0.2 µg/mL (≈ 0.56 µM)	0.2 µg/mL (≈ 0.56 µM)	25 µg/mL (≈ 70 µM)	0.2 µg/mL (≈ 0.56 µM)	–
CCOC(=O)c1c(C)nnn1Cc1cc(=O)oc2ccc(C)cc12	–	–	–	–	25 µg/mL (≈ 76.4 µM)	0.2 µg/mL (≈ 0.611 µM)	0.4 µg/mL (≈ 1.22 µM)	0.2 µg/mL (≈ 0.611 µM)	25 µg/mL (≈ 76.4 µM)	0.2 µg/mL (≈ 0.611 µM)	–
